# Columns and labels:
# ‘Redhaven’ peach = assay type: in vivo; conditions: antipyrine 50 mM, propyl gallate 15 mM, four weekly applications from swollen bud stage
# Method: (§1) In this study, we investigated the influence of propyl gallate and Antipyrine on the flowering time of ‘Redhaven’ and ‘Sunhigh’ cultivars. Three adjacent trees were randomly chosen, each as a replicate, and subjected to treatments: propyl gallate (15 mM), antipyrine (50 mM), and an untreated control. Four applications of each treatment were administered weekly, commencing at the swollen bud stage, which are concurrent at 2059, 2167, 2356, and 3128 DGH, respectively, employing a hand sprayer with the volume of 2.5 L per tree. Regulaid, a non-ionic surfactant from Kalo Inc. (Overland Park, KS, United States) was mixed with all treatments and experiments at the rate of 250 ppm.
# (§2) At the pink-bud stage, three-four branches from each treated and untreated (control) tree were randomly selected across the tree and flagged using colored ribbons. […] The progression of flower opening was recorded by periodically counting the number of open blossoms in each experiment. The number of open flowers (anthers visible) was counted every 1-3 days until all buds reached the full bloom stage (50% of flowers are fully open). The blooming rate at each time point was calculated as the ratio of open blossoms to the initial bud number per tree, and the flowering date (F50) for each treatment was determined when the blooming rate reached 50%. […]
# ‘Sunhigh’ peach = assay: Exp. 5 (2023) field trial: propyl gallate and antipyrine, flowering time; assay type: in vivo; conditions: antipyrine 50 mM, propyl gallate 15 mM, four weekly applications from swollen bud stage
# Method: as §1, §2
# ‘John Boy’ peach trees [1] = assay: Exp. 1 (2021) field trial: DIECA concentrations sprayed at 1000 GDH, bloom time, fruit set and size; assay type: in vivo; conditions: for Heat requirements / Flowering (F50) date / Days from endodormancy release to flowering (F50): sprayed at 1000 GDH, ‘John Boy’ 2021; for Flowering (F50) date: control 06 April; for Days from endodormancy release to flowering (F50): control 69 b
# Method: (§3) The field trials were taken place at the Alson H. Smith Jr. Agricultural Research and Extension Center (AREC), Winchester, VA, the United States (39°06′36.0′N 78°16′48.0′W). Experiments were conducted over two growing seasons (2021 and 2022) on 3-year-old ‘John Boy’ and 10-year-old ‘Redhaven’ peach trees; both are grafted on ‘Lovell’ rootstock.
# (§4) Chilling and heat accumulation were computed from meteorological data obtained from each orchard. Data loggers (EasyLog, Lascar) were kept in enclosed wooden shelters 1.2 m above the ground and recorded temperatures at 10 min intervals. Chilling requirements were calculated using the chilling hours (CH) model (Weinberger, 1950), in which each hourly temperatures within the range of 0-7.2° C. were registered as 1 CH, and temperatures outside of this range were not considered. Starting at 500 CH, three one-year-old branches, each with at least 10 floral buds, were collected weekly from each treatment. After removal of the terminal buds, the branches were placed in a beaker containing a floral solution prepared with Floralife (Smithers-Oasis Co., Walterboro, SC, USA). The floral solution was replaced weekly and around 1 cm was trimmed from the basal end of each branch to eliminate potential infections. The branches were kept in a growth chamber with conditions favoring bud growth (photoperiod with fluorescent lamps at 135 μmol·m^−2·s^−1 of 16 h at 25° C., a dark period of 8 h at 20° C., and a constant relative humidity of 65%). The endodormancy release and CRs were considered fulfilled when 50% of the buds have reached the calyx green stage after 14 days in the growth chamber.
# (§5) After completion of CR, heat requirements were recorded according to the growing degree hours (GDH) model proposed by Richardson et al. (1975). In this model, hourly temperatures less than 4.5° C. registered no GDH; temperatures in the interval of 4.5-25° C. were adjusted by subtracting 4.5° C., and temperatures greater than 25° C. were registered as 20.5 (25-4.5) GDH. Heat requirements (HR) were calculated as the GDH accumulated from the date of endodormancy release (under growth chambers conditions) to the date 50% of buds were in full bloom, F50 (under field conditions).
# This trial was conducted on ‘John Boy’ peach trees. Three different concentrations (0.5 mM, 10 mM, and 25 mM) of DIECA (Sigma-Aldrich Co., St Louis, MO, USA) were sprayed on three groups of trees, each group is composed of three adjacent trees. Treatments and control (untreated) trees were arranged in a completely randomized design (CRD). At least one buffer tree was assigned between each treatment to avoid spray drift. Trees were sprayed on 3 Mar. 2021 at 1000 GDH at a spray volume of 0.3 L per tree, using a hand sprayer. Regulaid (250 ppm), a non-ionic surfactant from Kalo Inc. (Overland Park, KS, United States) was mixed with all treatments and experiments at the rate of 250 ppm.
# (§6) At the pink-bud stage, three-four branches from each treated and untreated (control) tree were randomly selected across the tree and flagged using colored ribbons. The number of buds on selected branches (at least 80 bud/tree) was used as the initial bud count. The progression of flower opening was recorded by periodically counting the number of open blossoms in each experiment. The number of open flowers (anthers visible) was counted every 1-3 days until all buds reached the full bloom stage (50% of flowers are fully open). The blooming rate at each time point was calculated as the ratio of open blossoms to the initial bud number per tree, and the flowering date (F50) for each treatment was determined when the blooming rate reached 50%. The numbers of fruit on the marked branches were counted 2 and 4 and 8 weeks after full bloom. Percent fruit set was calculated as the number of fruits divided by the number of flowers times 100.
# [2] = system: ginseng, wheat and tea plant (Camellia sinensis); conditions: DIECA application; cited from earlier work
# ‘Redhaven’ peach trees [3] = assay: Exp. 3 (2022) field trial: DIECA concentrations sprayed at 500 GDH, bloom time and fruit set; assay type: in vivo; conditions: for Heat requirements / Flowering (F50) date / Days from endodormancy release to flowering (F50): sprayed at 500 GDH, ‘Redhaven’ 2022; for Flowering (F50) date: control 01 April; for Days from endodormancy release to flowering (F50): control 72 c
# Method: as §3, §4, §5
# In this trial, we used peach ‘Redhaven’ trees to examine the effects of three different concentrations (12.5, 25 and 50 mM) of DIECA on blooming time. Three adjacent trees were assigned for each treatment. All treated and untreated (control) trees were distributed in the orchard according to the CRD experimental design. DIECA treatments were applied at 500 GDH at a spray volume of 1.8 L per tree, using a high-pressure tree sprayer.
# as §6
# ‘John Boy’ peach trees [4] = assay: Exp. 4 (2022) field trial: late DIECA application at 2000 GDH, bloom time and fruit set; assay type: in vivo; conditions: DIECA 50 mM at 2000 GDH
# Method: as §3
# (§7) Chilling and heat accumulation were computed from meteorological data obtained from each orchard. Data loggers (EasyLog, Lascar) were kept in enclosed wooden shelters 1.2 m above the ground and recorded temperatures at 10 min intervals. Chilling requirements were calculated using the chilling hours (CH) model (Weinberger, 1950), in which each hourly temperatures within the range of 0-7.2° C. were registered as 1 CH, and temperatures outside of this range were not considered. Starting at 500 CH, three one-year-old branches, each with at least 10 floral buds, were collected weekly from each treatment. […]
# (§8) After completion of CR, heat requirements were recorded according to the growing degree hours (GDH) model proposed by Richardson et al. (1975). […] Heat requirements (HR) were calculated as the GDH accumulated from the date of endodormancy release (under growth chambers conditions) to the date 50% of buds were in full bloom, F50 (under field conditions). […]
# ‘Redhaven’ peach trees [5] = assay: Exp. 2 (2021) field trial: DIECA application timing, bloom time; assay type: in vivo; conditions: DIECA 10 mM applied at 1000 GDH
# Method: as §3, §7, §8
# ‘John Boy’ peach trees [6] = assay: Exp. 1 (2021) field trial: DIECA concentrations sprayed at 1000 GDH, bloom time, fruit set and size; assay type: in vivo; design: Delay of the flowering date (F50) vs control: dose or concentration left out as unconfirmed
# [7] = system: peach and other stone fruits; conditions: cited from earlier work
smiles,measurement,setting,value
"Cc1cc(=O)n(-c2ccccc2)n1C [Antipyrine, antipyrine]",Bloom delay compared to the control,‘Redhaven’ peach,two
same,Bloom delay compared to the control,‘Sunhigh’ peach,four
"CCN(CC)C(=S)[S-].[Na+] [DIECA, sodium diethyldithiocarbamate]",Heat requirements,‘John Boy’ peach trees [1]; DIECA 0.5 mM,5373 GDH
same,Flowering (F50) date,‘John Boy’ peach trees [1]; DIECA 0.5 mM,06 April
same,Days from endodormancy release to flowering (F50),‘John Boy’ peach trees [1]; DIECA 0.5 mM,69 b days
same,Heat requirements,‘John Boy’ peach trees [1]; DIECA 10 mM,5539 GDH
same,Flowering (F50) date,‘John Boy’ peach trees [1]; DIECA 10 mM,07 April
same,Days from endodormancy release to flowering (F50),‘John Boy’ peach trees [1]; DIECA 10 mM,70 b days
same,Delay in the blooming,"‘John Boy’ peach trees [1]; DIECA 25 mM (highest concentration), 1000 GDH, ‘John Boy’",significant delay in the blooming
same,Heat requirements,‘John Boy’ peach trees [1]; DIECA 25 mM,6048 GDH
same,Flowering (F50) date,‘John Boy’ peach trees [1]; DIECA 25 mM,08 April
same,Days from endodormancy release to flowering (F50),‘John Boy’ peach trees [1]; DIECA 25 mM,72 a days
same,JA levels,[2],substantially reduce JA levels
same,Heat requirements,‘Redhaven’ peach trees [3]; DIECA 12.5 mM,6090 GDH
same,Flowering (F50) date,‘Redhaven’ peach trees [3]; DIECA 12.5 mM,04 April
same,Days from endodormancy release to flowering (F50),‘Redhaven’ peach trees [3]; DIECA 12.5 mM,75 bc days
same,Delay in bloom time compared to the untreated control,‘Redhaven’ peach trees [3]; DIECA 25 mM at 500 GDH,3 days
same,Heat requirements,‘Redhaven’ peach trees [3]; DIECA 25 mM,6090 GDH
same,Flowering (F50) date,‘Redhaven’ peach trees [3]; DIECA 25 mM,04 April
same,Days from endodormancy release to flowering (F50),‘Redhaven’ peach trees [3]; DIECA 25 mM,75 b days
same,Delay in bloom time compared to the untreated control,‘Redhaven’ peach trees [3]; DIECA 50 mM at 500 GDH,6 days
same,Heat requirements,‘Redhaven’ peach trees [3]; DIECA 50 mM,6478 GDH
same,Flowering (F50) date,‘Redhaven’ peach trees [3]; DIECA 50 mM,07 April
same,Days from endodormancy release to flowering (F50),‘Redhaven’ peach trees [3]; DIECA 50 mM,78 a days
same,Bloom delay,"‘Redhaven’ peach trees [3]; all DIECA applications (12.5, 25, 50 mM) at 500 GDH",remarkable bloom delay
same,Bloom delay in peach,‘Redhaven’ peach trees [3]; high DIECA concentrations (>25 mM) at early ecodormancy (~500 GDH),3 to 6 days
same,Flowering time vs control,‘John Boy’ peach trees [4],No significant differences
same,Bloom progression compared to the control,‘Redhaven’ peach trees [5],slightly delayed bloom progression
same,Bloom-delaying effect,‘Redhaven’ peach trees [5]; 2000 GDH or 1000+2000 GDH,None of the DIECA application timings showed a significant bloom-delaying effect
same,Delay of the flowering date (F50) vs control,"‘John Boy’ peach trees [6]; DIECA, 1000 GDH, ‘John Boy’",three
"CCN(CC)C(=S)[S][Na] [DIECA, sodium diethyldithiocarbamate]",Fruit size vs control,"‘John Boy’ peach trees [1]; DIECA 0.5, 10, 25 mM, 6 WAFB",No significant differences
same,Fruit set (%) vs control,"‘Redhaven’ peach trees [3]; DIECA 12.5, 25, 50 mM at 500 GDH, 2 and 4 WAFB",did not show significant differences
same,Fruit set (%) vs control,‘John Boy’ peach trees [4]; 2 and 4 WAFB,no significant differences
same,Fruit set (%) vs control,"‘John Boy’ peach trees [6]; DIECA 0.5, 10, 25 mM, 3 and 6 WAFB",No significant differences
"O=P(O)(O)CCCl [ET, 2-chloroethylphosphonic acid]",Detrimental effects,[7]; high concentration application,"gummosis, abortion of floral buds and dieback of the branches"
same,Bloom delay,"[7]; high concentration, applied in the fall",more than two weeks
"CCCOC(=O)c1cc(O)c(O)c(O)c1 [propyl gallate, n-propyl gallate]",Bloom delay compared to the control,‘Redhaven’ peach,no significant impact
same,Bloom delay compared to the control,‘Sunhigh’ peach,single
